The values below come from US10301294B2, “Compounds for the treatment of tuberculosis” (priority 2013, dated 2019).

What all share (type): cell-based
A short description of data set [1]: Cytotoxicity against HeLa. The note with it: human, HeLa cells, 26.0 uM highest concentration measured.
In data set [2] the test system is carbon-starved M. tuberculosis H37Rv. Briefly: Non-replicating IC90 determination by luciferase (carbon-starved cells). The note with it: Mycobacterium tuberculosis, H37RV, luciferase; for IC90: non-replicating carbon-starved Mtb, three independent experiments in triplicate, read-out: TB Growth Inhibition Activity, IC90 Non-replicating_luciferase; for IC99: 120 h, None = inhibition did not reach 99%, read-out: Against carbon starved non-replicating Mtb IC99 (uM, luciferase).

Data set [3] can be described thus: Cytotoxicity against Hek 293. The note with it: human, HEK293 cells, 26.0 uM highest concentration measured.
Data set [4] is described as follows: Cytotoxicity against HepG2. The note with it: human, HepG2 cells, 26.0 uM highest concentration measured.
Data set [5] relates to replicating M. tuberculosis H37Rv. The data set is described as follows: microbe, parasite or virus in culture. The note with it: None = inhibition did not reach 90%; for IC90: Mycobacterium tuberculosis, H37RV, read-out: Against Replicating Mtb IC90 (uM, GFP).

For orientation: IC50 means the concentration at which inhibition is half-maximal. Read a low IC50 as greater potency. As a reminder, the IC90 is the point of the concentration-response curve where the effect stands at 90%. Take `c1ccc(CSc2ncc(-c3ccccc3)o2)cc1`: the concentration for half-maximal inhibition (IC50) in data set [1], in data set [3] and in data set [4] was more than 26 µM throughout. In addition, in data set [2], the 90% effect concentration (IC90) was found to be 62 µM.
With `c1ccc(COc2nnc(-c3ccccc3)o2)cc1`, the IC50 in data set [1], in data set [3] and in data set [4] was more than 26 µM each time. The 90% effect concentration (IC90) in data set [2] is 8 µM.
As for `c1ccc(CNc2nnc(-c3ccccc3)o2)cc1`, the concentration for half-maximal inhibition (IC50) in data set [1], in data set [3] and in data set [4] was more than 26 µM throughout. For the same molecule, the IC90 in data set [2] came out at 4 µM.
Turning to `O=C(Cc1ccccc1)c1nnc(-c2ccccc2)o1`, the 50% inhibitory concentration (IC50) in data set [1], in data set [3] and in data set [4] was more than 26 µM in each case. Besides, the IC90 in data set [2] came out at 16 µM.
With `Cc1nnc(SCc2ccccc2)o1`, the IC50 in data set [1], in data set [3] and in data set [4] was more than 26 µM each time. Besides, in data set [2], the IC90 came to 31 µM.
As for `c1ccc(CSc2nnc(-c3ccc(-c4ccccc4)cc3)o2)cc1`, the IC50 in data set [1], in data set [3] and in data set [4] was more than 26 µM in each case.
With `Cc1ccccc1-c1nnc(SCc2ccccc2)o1`, the IC50 in data set [1], in data set [3] and in data set [4] was more than 26 µM in each case. In addition, the IC90 in data set [2] is 16 µM.
Turning to `FC(F)(F)Oc1ccccc1-c1nnc(SCc2ccccc2)o1`, the half-inhibitory concentration (IC50) in data set [1], in data set [3] and in data set [4] was more than 26 µM each time. Also, the IC90 in data set [2] was 62 µM.
Turning to `Cc1cccc(-c2nnc(SCc3ccccc3)o2)c1`, the IC50 in data set [1], in data set [3] and in data set [4] was more than 26 µM throughout. The IC90 in data set [2] worked out at 8 µM.
As to `Clc1cccc(-c2nnc(SCc3ccccc3)o2)c1`, the 50% inhibitory concentration (IC50) in data set [1], in data set [3] and in data set [4] was more than 26 µM in each case. Further, the IC90 in data set [2] is 8 µM.
In the case of `FC(F)(F)c1cccc(-c2nnc(SCc3ccccc3)o2)c1`, the IC50 in data set [1], in data set [3] and in data set [4] was more than 26 µM each time. Also, the concentration for an effect of 90% (IC90) in data set [2] was found to be 31 µM.
As to `CS(=O)(=O)c1ccc(-c2nnc(SCc3ccccc3)o2)cc1`, the IC50 in data set [1], in data set [3] and in data set [4] was more than 26 µM throughout.
Take `COc1ccccc1CSc1nnc(-c2ccccc2)o1`: the half-inhibitory concentration (IC50) in data set [1], in data set [3] and in data set [4] was more than 26 µM each time. In addition, in data set [2], the IC90 stood at 2 µM.
Consider `FC(F)(F)c1ccccc1CSc1nnc(-c2ccccc2)o1`, for which the half-inhibitory concentration (IC50) in data set [1], in data set [3] and in data set [4] was more than 26 µM throughout. Also, the IC90 in data set [2] is 1 µM.
As for `N#Cc1ccccc1CSc1nnc(-c2ccccc2)o1`, the half-inhibitory concentration (IC50) in data set [1], in data set [3] and in data set [4] was more than 26 µM throughout. Besides, in data set [2], the IC90 is 4 µM.
For the molecule `CS(=O)(=O)c1ccccc1CSc1nnc(-c2ccccc2)o1`, the 50% inhibitory concentration (IC50) in data set [1], in data set [3] and in data set [4] was more than 26 µM in each case.
For `COc1cccc(CSc2nnc(-c3ccccc3)o2)c1`, the 50% inhibitory concentration (IC50) in data set [1], in data set [3] and in data set [4] was more than 26 µM in each case. For the same molecule, the 90% effect concentration (IC90) in data set [2] turned out to be 1 µM.
Take `Clc1cccc(CSc2nnc(-c3ccccc3)o2)c1`: the IC50 in data set [1], in data set [3] and in data set [4] was more than 26 µM each time. Further, the IC90 in data set [2] came to 4 µM.
On to `FC(F)(F)Oc1cccc(CSc2nnc(-c3ccccc3)o2)c1`, for which the IC50 in data set [1], in data set [3] and in data set [4] was more than 26 µM throughout. Further, the IC90 in data set [2] was 2 µM.
On to `N#Cc1cccc(CSc2nnc(-c3ccccc3)o2)c1`, for which the IC50 in data set [1], in data set [3] and in data set [4] was more than 26 µM in each case. In data set [2], the IC90 amounted to 8 µM.
For the molecule `Cc1ccc(CSc2nnc(-c3ccccc3)o2)cc1`, the half-maximal inhibitory concentration (IC50) in data set [1], in data set [3] and in data set [4] was more than 26 µM in each case. Also, the IC90 in data set [2] came to 1 µM.
On to `COc1ccc(CSc2nnc(-c3ccccc3)o2)cc1`, for which the concentration for half-maximal inhibition (IC50) in data set [1], in data set [3] and in data set [4] was more than 26 µM each time. Also, the IC90 in data set [2] is 0.25 µM.
On to `Clc1ccc(CSc2nnc(-c3ccccc3)o2)cc1`, for which the IC50 in data set [1], in data set [3] and in data set [4] was more than 26 µM each time. Further, the IC90 in data set [2] was determined as 1 µM.
Regarding `FC(F)(F)c1ccc(CSc2nnc(-c3ccccc3)o2)cc1`, the half-maximal inhibitory concentration (IC50) in data set [1], in data set [3] and in data set [4] was more than 26 µM throughout. Moreover, the IC90 in data set [2] came to 1 µM.
With `FC(F)(F)Oc1ccc(CSc2nnc(-c3ccccc3)o2)cc1`, the IC50 in data set [1], in data set [3] and in data set [4] was more than 26 µM throughout. Also, in data set [2], the 90% effect concentration (IC90) is 1 µM.
Take `N#Cc1ccc(CSc2nnc(-c3ccccc3)o2)cc1`: the concentration for half-maximal inhibition (IC50) in data set [1], in data set [3] and in data set [4] was more than 26 µM each time. For the same molecule, the IC90 in data set [2] amounted to 2 µM.
On to `CS(=O)(=O)c1ccc(CSc2nnc(-c3ccccc3)o2)cc1`, for which the IC50 in data set [1], in data set [3] and in data set [4] was more than 26 µM in each case. In data set [2], the 90% effect concentration (IC90) worked out at 31 µM.
Consider `c1ccc(-c2ccc(CSc3nnc(-c4ccccc4)o3)cc2)cc1`, for which the IC50 in data set [1], in data set [3] and in data set [4] was more than 26 µM each time. For the same molecule, the concentration for an effect of 90% (IC90) in data set [2] turned out to be 8 µM.
On to `FC(F)(F)CNCCSc1nnc(-c2ccccc2)o1`, for which the IC50 in data set [1], in data set [3] and in data set [4] was more than 26 µM each time. The IC90 in data set [2] amounted to 250 µM.
As to `c1ccc(-c2nnc(SCCN3CCOCC3)o2)cc1`, the concentration for half-maximal inhibition (IC50) in data set [1], in data set [3] and in data set [4] was more than 26 µM each time. Also, the IC90 in data set [2] turned out to be 250 µM.
On to `CC1(O)CN(CCSc2nnc(-c3ccccc3)o2)C1`, for which the half-maximal inhibitory concentration (IC50) in data set [1], in data set [3] and in data set [4] was more than 26 µM in each case. In addition, the 90% effect concentration (IC90) in data set [2] came out at 125 µM.
As for `c1ccc(-c2nnc(SCCN3CCCC3)o2)cc1`, the half-maximal inhibitory concentration (IC50) in data set [1], in data set [3] and in data set [4] was more than 26 µM each time. Also, in data set [2], the concentration for an effect of 90% (IC90) worked out at 16 µM.
Broadly, the IC99 is the concentration needed for an effect of 99%. Consider `c1ccc(-c2nnc(SCc3ccccn3)o2)cc1` [drawing 177], for which the 90% effect concentration (IC90) in data set [5] was determined as 100 µM. For the same molecule, in data set [2], the concentration for an effect of 99% (IC99) stood at 31 µM.
In the same order, the values of `c1ccc(-c2nnc(SCc3cccnc3)o2)cc1` [drawing 178] are 125 µM and 250 µM.
In the same order, the values of `c1ccc(-c2nnc(SCc3ccncc3)o2)cc1` [drawing 179] are 250 µM and 500 µM.
In the same order, the values of `c1ccc(-c2nnc(SC3CCCCC3)o2)cc1` [drawing 181] are more than 500 µM and 62 µM.
`[O-][n+]1ccccc1CSc1nnc(-c2ccccc2)o1` [drawing 194]: the IC90 in data set [5] is 62 µM. For the same molecule, in data set [2], the 99% effect concentration (IC99) turned out to be 125 µM.
In the same order, the values of `[O-][S+](Cc1ccccn1)c1nnc(-c2ccc(Cl)cc2)o1` (stereo not drawn) [drawing 195] are 31 µM and 4 µM.
In the same order, the values of `COCC[S+]([O-])c1nnc(-c2ccc(Cl)cc2)o1` (stereo not drawn) [drawing 196] are 31 µM and 31 µM.
In the same order, the values of `Brc1ccc(-c2nnc(SCc3ccccn3)o2)cc1` [drawing 212] are 31 µM and 8 µM.
Take `[O-][S+](Cc1ccccc1)c1nnc(-c2ccccc2)o1` (stereo not drawn) [drawing 213]: in data set [5], the concentration for an effect of 90% (IC90) was determined as 125 µM. In data set [2], the IC99 came out at 4 µM.
In the same order, the values of `O=S(=O)(Cc1ccccc1)c1nnc(-c2ccccc2)o1` [drawing 214] are 125 µM and 16 µM.
In the same order, the values of `Fc1ccc(-c2nnc(SCc3ccccn3)o2)cc1` [drawing 215] are 31 µM and 62 µM.
In the same order, the values of `Fc1cccc(-c2nnc(SCc3ccccn3)o2)c1` [drawing 216] are 31 µM and 16 µM.
With `Brc1cccc(-c2nnc(SCc3ccccn3)o2)c1` [drawing 217], the concentration for an effect of 90% (IC90) in data set [5] was 62 µM. In addition, in data set [2], the IC99 was found to be 31 µM.
In the same order, the values of `[O-][S+](Cc1cn(Cc2ccccc2)nn1)c1nnc(-c2ccc(Cl)cc2)o1` (stereo not drawn) [drawing 223] are 62 µM and 8 µM.
As to `Clc1ccc(-c2nnc(SCc3cn(Cc4ccccc4)nn3)o2)cc1` [drawing 224], in data set [5], the “Against Replicating Mtb IC90 (uM, GFP)” value is recorded as “None”. For the same molecule, the IC99 in data set [2] came out at 16 µM.
With `COc1cccc(-c2nnc(SCc3ccccn3)o2)c1` [drawing 227], in data set [5], the IC90 is 62 µM. Moreover, the IC99 in data set [2] came to 16 µM.
In the same order, the values of `COc1ccc(CSc2nnc(-c3ccc(Cl)cc3)o2)nc1` [drawing 228] are 31 µM and 8 µM.
In the same order, the values of `COC(=O)CCCOc1ccc(CSc2nnc(-c3ccc(Cl)cc3)o2)nc1` [drawing 233] are 31 µM and 16 µM.
Consider `[N-]=[N+]=NCCOCCNC(=O)CCCOc1ccc(CSc2nnc(-c3ccc(Cl)cc3)o2)nc1` [drawing 237], for which the IC90 in data set [5] stood at 62 µM. The 99% effect concentration (IC99) in data set [2] stood at 62 µM.
As for `[N-]=[N+]=NCCOCCNC(=O)CCCOc1ccc(C[S+]([O-])c2nnc(-c3ccc(Cl)cc3)o2)nc1` (stereo not drawn) [drawing 240], the 90% effect concentration (IC90) in data set [5] was determined as 250 µM. The 99% effect concentration (IC99) in data set [2] came to 16 µM.
